# Where two headings read alike, the source gives them in different places.
# Key:
# [1] = system: JAK2 (BaF3 V617F cells, UKE-1); test: Proliferation Assay (Cell Titer-Glo, 72 hours); format: cell-based; details: proliferation 72 hours, BaF3 V617F or UKE-1 cells, cell line not given, read-out: Example 7 (IC50)
# Description: • Dimethyl Sulfoxide (DMSO) (Sigma-Aldrich, Cat No. D2650) (Control) • Iscove's DMEM, ATCC Catalog #30-2005 • 1 M HEPES, Cellgro Catalog #25-060-Cl (100 mL) • 100 mM Sodium Pyruvate, Cellgro Catalog #25-000-Cl (100 mL) • Penicillin/Streptomycin, 10000 U/mL each, Cellgro Catalog #30-002-Cl (100 mL) • RPMI 1640 (Cellgro, Cat No. 10-040-CM) • Fetal Bovine Serum (JRH, Cat No. 12106-500M) • Donor Equine Serum, Hyclone Catalog #SH30074.02 (100 mL) • 50 μM hydrocortisone solution, Sigma Catalog #H6909-10 ml (10 mL) Culture Conditions
# BaF3 V617F cells are maintained and plated in RPMI with 10% FBS. Plating density for these cells is 1×10^5 cells/mL.
# UKE-1 are maintained and plated in Iscove's DMEM containing 10% FBS, 10% equine serum, 1% penicillin/streptomycin and 1 uM hydrocortisone. Plating density for these cells is 0.4×10^6 cells/mL
# The cells were resuspended in a corresponding medium at a required cell density (see above). 100 μ of cell suspension was added to each well of a flat bottom 96 well white plate. The compound was serially diluted in DMSO from 5 mM in 3-fold dilutions, and then diluted 1:250 in the RPMI 1640 medium containing 5% FBS and pen/strep. 100 μL of resulting 2× compound solution was added per well in duplicate and the cells were allowed to proliferate for 72 hours at 37° C.
# Proliferation was measured using Cell Titer-Glo. The substrate was thawed and allowed to come to room temperature. After removal of top 100 μL of medium from each well, 100 μL of the premixed Cell Titer-Glo reagent was added to each well. The plates were mixed on an orbital shaker for three minutes to induce lysis and incubated at ambient temperature for an additional five minutes to allow the signal to equilibrate. The Luminescence was read on the Wallac Plate Reader.
# The results of the ability of the compounds of the invention to inhibit JAK2 activity, when tested in the above assay, are shown in the following Table IX wherein the level of activity (i.e. the IC50) for each compound is indicated in Table IX. Thae compound numbers in Table IX Refers to the compound disclosed herein as being preparded hy the methods disclosed herein: […]
# [2] = system: Ramos B-Cell Line Stimulated with IL-4 (JAK-1 and JAK-3 / Stat-6, CD23); test: Assay for Ramos B-Cell Line Stimulated with IL-4 (CD23 upregulation, FACS); format: cell-based; details: human Ramos B cells, compound 1 hour, IL-4 50 units/mL for 20-24 hours, anti-CD23-PE FACS, read-out: Example 2 (IC50)
# Summary of the method: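 Human Ramos B cells (5×10^4 per point, RPMI with 5% serum) pre-incubated 1 hour at 37° C with compound or DMSO, then stimulated with IL-4 at 50 units/mL final for 20-24 hours. CD23 upregulation measured by flow cytometry.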
IC50 [1],"IC50 ([2]; Homo sapiens, Ramos)",IC50 [2],Compound
1.43 µM,0.116 µM,,"Cc1cnc(Nc2cccc(C#N)c2)nc1Nc1ccc2c(c1)N(C)C(=O)CS2 [II-7, N2-(3-Cyanophenyl)-5-methyl-N4-(4-methyl-3-oxo-2H-benzo[1,4]thiazin-6-yl)-2,4-pyrimidinediamine]"
1.64 µM,,0.18 µM,"N2-(3-Aminocabonylphenyl)-N4-(3,4-dihydro-2H-4-methyl-3-oxo-5-pyrido[1,4]oxazin-6-yl)-2,4-pyrimidinediamine [II-42]"
0.432 µM,0.179 µM,,"Cc1cnc(Nc2cccc(C(N)=O)c2)nc1Nc1ccc2c(c1)N(C)C(=O)C(C)(C)S2 [II-45, N2-(3-Aminocarbonylphenyl)-5-methyl-N4-(2,2,4-trimethyl-3-oxo-benz[1,4]thiazin-6-yl)-2,4-pyrimidinediamine]"
16.4 µM,,0.098 µM,"CNC(=O)COc1cccc(Nc2ncc(C)c(Nc3ccc4c(c3)NC(=O)C(F)(F)O4)n2)c1 [II-49, N4-(2,2-Difluoro-3-oxo[4H]benzo[1,4]oxazin-6-yl)-5-methyl-N2-[3-(N-Methylaminocarbonylmethyleneoxy)phenyl]-2,4-pyrimidinediamine]"
0.16 µM,,0.0573 µM,"CNC(=O)COc1cc(Nc2ncc(F)c(Nc3ccc4c(c3)NC(=O)C(C)(C)S4)n2)cc(OC)c1OC [II-17, N2-[4,5-Dimethoxy-3-(N-methylaminocarbonylmethyleneoxy)phenyl]-N4-(2,2-dimethyl-3-oxo-4H-benzo[1,4]thiazin-6-yl)-5-fluoro-2,4-pyrimidinediamine]"
0.492 µM,,0.0802 µM,"CNC(=O)COc1cccc(Nc2ncc(C)c(Nc3ccc4c(c3)N(C)C(=O)C(F)(F)O4)n2)c1 [II-37, N4-(2,2-Difluoro-4-methyl-3-oxo-4H-benzo[1,4]oxazin-6-yl)-5-methyl-N2-[3-(N-methylaminocarbonylmethyleneoxy)phenyl]-2,4-pyrimidinediamine]"
1.09 µM,,0.0896 µM,"CNC(=O)COc1cc(Nc2ncc(F)c(Nc3ccc4c(n3)NCC(C)(C)O4)n2)ccc1OC [II-32, N4-(3,4-Dihydro-2,2-dimethyl-2H-5-pyrido[1,4]oxazin-6-yl)-5-fluoro-N2-[4-methoxy-3-(N-methylaminocarbonylmethoxy)phenyl]-2,4-pyrimidinediamine]"
0.388 µM,0.0034 µM,,"CN1CCN(c2ccc(Nc3ncc(F)c(Nc4ccc(OCC#N)cc4)n3)cc2C#N)CC1 [Compound I-41, N4-(4-Cyanomethoxyphenyl)-N2-[3-cyano-4-(4-methylpiperazin-1-yl)phenyl]-5-fluoro-2,4-pyrimidinediamine]"
68.3 µM,0.0697 µM,,"Cc1cnc(Nc2cccc(C#N)c2)nc1Nc1ccc2c(c1)NC(=O)CO2 [II-6, N2-(3-Cyanophenyl)-5-methyl-N4-(3-oxo-2H,4H-benzo[1,4]oxazin-6-yl)-2,4-pyrimidinediamine]"
0.55 µM,0.162 µM,,"Cc1cnc(Nc2cccc(C(N)=O)c2)nc1Nc1ccc2c(c1)N(C)C(=O)C(C)(C)O2 [II-39, N2-(3-Aminocarbonylphenyl)-5-methyl N4-(2,2,4-trimethyl-3-oxo-benz[1,4]oxazin-6-yl)-2,4-pyrimidinediamine]"
0.489 µM,,0.0752 µM,"CNC(=O)COc1cc(Nc2ncc(F)c(Nc3ccc4c(n3)NCC(C)(C)O4)n2)cc(OC)c1OC [II-33, N4-(3,4-Dihydro-2,2-dimethyl-4H-5-pyrido[1,4]oxazin-6-yl)-N2-[3,4-dimethoxy-5-(N-methylaminocarbonylmethoxy)phenyl]-5-fluoro-2,4-pyrimidinediamine]"
0.98 µM,0.116 µM,,"Cc1cnc(Nc2cccc(C#N)c2)nc1Nc1ccc2c(c1)N(C)C(=O)CO2 [II-10, N2-(3-Cyanophenyl)-5-methyl-N4-(4-methyl-3-oxo-2H-benzo[1,4]oxazin-6-yl)-2,4-pyrimidinediamine]"
0.653 µM,,0.0251 µM,"CNC(=O)COc1cc(Nc2ncc(F)c(Nc3ccc4c(c3)NC(=O)C(C)(C)O4)n2)cc(OC)c1OC [II-18, N2-[4,5-Dimethoxy-3-(N-methylaminocarbonylmethyleneoxy)phenyl]-N4-(2,2-dimethyl-3-oxo-benzo[1,4]oxazin-6-yl)-5-fluoro-2,4-pyrimidinediamine]"
2.07 µM,,0.129 µM,"Cc1cnc(Nc2cccc(C(N)=O)c2)nc1Nc1ccc2c(c1)N(C)C(=O)CS2 [II-41, N2-(3-Aminocarbonylphenyl)-N4-(3,4-dihydro-2H-4-methyl-3-oxo-benz[1,4]thiazin-6-yl)-5-methyl-2,4-pyrimidinediamine]"
0.223 µM,,0.0564 µM,"CNC(=O)COc1cccc(Nc2ncc(C)c(Nc3ccc4c(c3)N(C)C(=O)CS4)n2)c1 [II-8, 5-Methyl-N2-[3-(N-methylaminocarbonylmethyleneoxy)phenyl]-N4-(4-methyl-3-oxo-2H-benzo[1,4]thiazin-6-yl)-2,4-pyrimidinediamine]"
0.567 µM,0.0217 µM,,"N#CCOc1cccc(Nc2nc(Nc3ccc(C(N)=O)cc3)ncc2F)c1 [Compound I-44, N2-(4-Aminocarbonylphenyl)-N4-(3-cyanomethoxyphenyl)-5-fluoro-2,4-pyrimidinediamine]"
2.15 µM,,0.231 µM,"5-Methyl-N2-(I-oxo-1,2,3,4-tetrahydroisoquinolin-7-yl)-N4-[3-oxo-2,2,4-trimethyl-5-pyrido[1,4]oxazin-6-yl]-2,4-pyrimidinediamine [IV-3]"
4.12 µM,0.748 µM,,"CN1C(=O)C(C)(C)Oc2ccc(Nc3nc(Nc4ccc5c(c4)C(=O)NCC5)ncc3F)nc21 [IV-2, 5-Fluoro-N2-(1-oxo-1,2,3,4-tetrahydroisoquinolin-7-yl)-N4-[3-oxo-2,2,4-trimethyl-5-pyrido[1,4]oxazin-6-yl]-2,4-pyrimidinediamine]"
1.26 µM,0.0623 µM,,"CN1CCN(C(=O)c2ccc(Nc3ncc(F)c(Nc4ccc(OCC#N)cc4)n3)cc2)CC1 [Compound I-31, N4-(4-Cyanomethoxyphenyl)-5-fluoro-N2-[4-((4-methylpiperazin-1-yl)carbonyl)phenyl]-2,4-pyrimidinediamine]"
